Test results published in patent publication US12187663B2, “Thyromimetics with a biphenylmethane scaffold and their use” (INTERNATIONAL SOCIETY FOR DRUG DEVELOPMENT S.R.L., priority 2019, dated 2025).

Key:
HepG2 cells [1] = assay: Total lipid accumulation by Oil Red O staining; format: cell-based, Human; details: 25 μM
Procedure: Total lipid accumulation was evaluated according to the method previously described by Liu et al.. […] Cloroquine (25 μM) and Isoproterenol (10 μM) were used as positive controls. Subsequently, after collecting the growth media to be used to perform glycerol level measurements (as detailed below), cells were rinsed twice with PBS and fixed in 4% paraformaldehyde in PBS for 30 min. Then, cells were stained with Oil Red O working solution for 1 h at room temperature and subsequently rinsed with water.
The Oil Red O stock solution was prepared by dissolving 0.35 g of Oil Red O (Sigma Aldrich, Milan, Italy) in 100 mL of isopropanol by gentle heating and then cooled and filtered through a 0.45 μm filter. The working solution was prepared by diluting three parts of the stock solution in two parts of MilliQ water (stock solution:MilliQ water; 3:2 v/v). The cell images were captured with a Leitz Fluovert FU (Leica Microsystems, Wetzlar, Germany) microscope. Lipids appeared red. For quantitative analysis of cellular lipids, 1 mL isopropanol was added to each well of the stained culture plate. The extracted dye was immediately removed by gentle pipetting and its absorbance was measured at 510 nm.

AMPK = assay: Western blot of phosphorylated AMPK in HepG2 cells; format: cell-based, Human; details: twenty-four hours of treatment, dose dependent
Procedure: (§1) Human hepatocellular carcinoma cells (HepG2), obtained from American Type Culture Collection (Manassas, Va., USA), were cultured in low-glucose (LG) Dulbecco's modified Eagle's medium (DMEM) ([…], Invitrogen, Carlsbad, Calif., USA) or high-glucose (HG) DMEM ([…]) supplemented with 10% fetal bovine serum (FBS) and […] penicillin/streptomycin in an atmosphere of 5% CO2 at 37° C. These cells were then treated with tested compounds at various concentrations for 24 h. After treatments, cells were lysed in a buffer containing 20 mM Tris-HCl (pH 7.5), 0.9% NaCl, 0.2% Triton X-100, and 1% of the protease inhibitor cocktail (Sigma-Aldrich, Milan, Italy) and then stored at −80° C. for further western blot analysis. All the analyses were conducted on cells between the third and the sixth passage.
(§2) Proteins (20-30 μg) were separated on CriterionTGX™ gel (4-20%) and transferred on Immuno-PVDF membrane (Biorad, Milan, Italy) for 1 h. Blots were incubated with the primary antibody at 4° C. overnight. All the polyclonal antibodies for the protein of interest were purchased from Santa Cruz Biotechnology, Inc., Dallas, TX, USA. Then, blots were washed 3 times for 10 minutes with 1×TBS, 0.1% Tween® 20 and incubated for 1 h with secondary antibody (peroxidase-coupled anti rabbit in 1×TBS, 0.1% Tween®20). […] Band densitometric analysis was performed using Image Lab Software (Biorad, Milan, Italy).
(§3) The liver is a major organ responsible for most functions of cellular metabolism and a mediator between dietary and endogenous sources of energy for extrahepatic tissues. In this context, AMPK constitutes an intrahepatic energy sensor regulating physiological energy dynamics by limiting anabolism and stimulating catabolism, thus increasing ATP availability. Once activated, AMPK phosphorylates its downstream substrates to reduce ATP-consuming anabolic pathways, including cholesterol, fatty acid, and triacylglycerol synthesis, and increases ATP-generating catabolic pathways, including fatty acid oxidation and lipolysis. […]

ACC = assay: Western blot of phosphorylated ACC in HepG2 cells; format: cell-based, Human; details: twenty-four hours of treatment
Procedure: as §1, §2, §3

HepG2 cells [2] = assay: Cell viability MTT assay; format: cell-based; details: 1-10 μM, 24 h
Procedure: HepG2 cells were seeded in a 96-well plate (Corning, USA) at a density of 1.0×10^4 cells/well with DMEM (200 μl/well), and then incubated for 24 h according to routine procedure. After being treated with test compounds (1-10 μM) and incubated for 24 h (8 wells for each sample), 20 μL/well MTT (5 g/L) was added to each well. The medium was then removed after 4 h incubation and 100 μL/well sodium dodecyl sulfate (SDS)-HCl solution was added to dissolve the reduced formazan product after incubation for 16 h at 37° C. Finally, the plate was read at 570 nm, using a micro-plate reader (Bio-Rad 680, USA).

pancreatic acinar cells = assay: Pancreatic acinar cell proliferation (BrdU labeling index); format: in vivo, rats; details: one week; T3 4 mg/kg diet; GC1 50 μg/kg gavage once daily; TG68 and IS25 50 μg/kg in drinking water
Procedure: FIG. 9. […] BrdU (1 mg/ml) in drinking water was given all throughout the experimental time. […] LI was expressed as number of BrdU-positive acinar cell nuclei/100 nuclei. At least 2000 acinar cells per pancreas were scored. Results are expressed as means±SE of 3 to 5 rats per group. (one way ANOVA). ***Statistically significant from control; P<0.001.
BrdU (1 mg/ml) in drinking water was given all throughout the experimental time. […] LI was expressed as number of BrdU-positive acinar cell nuclei/100 nuclei. At least 2000 acinar cells per pancreas were scored.

[3] = known property of the reference; cited from earlier work

SMILES: CCN(CC)CCCC(C)Nc1ccnc2cc(Cl)ccc12 (stereo not drawn) [Cloroquine]
- red lipid droplets (Oil Red O), steatosis-inducing positive control (HepG2 cells [1]): high amount of red lipid droplets

SMILES: N[C@@H](Cc1cc(I)c(Oc2ccc(O)c(I)c2)c(I)c1)C(=O)O [Compound T3, 3,5,3′-triiodothyronine, reference compound]
- expression of p-AMPK (AMPK): significantly (p<0.05) increased
- ACC phosphorylation (p-ACC) (ACC): significant ACC phosphorylation
- cell viability (cell death with respect to control) (HepG2 cells [2]): did not significantly (p<0.05) cause cell death

SMILES: Cc1cc(OCC(=O)O)cc(C)c1Cc1ccc(O)c(C(C)C)c1 [GC-1, Sobetirome, reference compound]
- pancreatic acinar cell proliferation (BrdU-positive acinar cells) (pancreatic acinar cells): Several BrdU-positive acinar cells were observed
- solubility in water [3]: insoluble compound in water
